#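 The compound was tested at five concentrations on cells cultured in 96-well plates, with a 48-hour exposure period. GI50 marks 50% less growth.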 Activity calls are given as the source filed them. Rule as the data show it: active = GI50 up to about 1.1 µM and inactive = higher.
# Key:
# Experiment in all cases: DTP human tumour cell line panel, 48 h
# PC-3 = tested on: PC-3
# SK-OV-3 = tested on: SK-OV-3
# TK-10 = tested on: TK-10
# RPMI-8226 = tested on: RPMI-8226
# M14 = tested on: M14
# MDA-MB-231 = tested on: MDA-MB-231
# LOX IMVI = tested on: LOX IMVI
# SR = tested on: SR
# DU-145 = tested on: DU-145
# NCI-H23 = tested on: NCI-H23
# MCF7 = tested on: MCF7
# COLO 205 = tested on: COLO 205
# CAKI-1 = tested on: CAKI-1
# HCT-116 = tested on: HCT-116
# HCT-15 = tested on: HCT-15
# EKVX = tested on: EKVX
# SK-MEL-2 = tested on: SK-MEL-2
# KM12 = tested on: KM12
# UO-31 = tested on: UO-31
# SF-295 = tested on: SF-295
# 786-0 = tested on: 786-0
# SW-620 = tested on: SW-620
# NCI-H522 = tested on: NCI-H522
# NCI-H460 = tested on: NCI-H460
# MOLT-4 = tested on: MOLT-4
# UACC-257 = tested on: UACC-257
# MDA-MB-435 = tested on: MDA-MB-435
# A498 = tested on: A498
# UACC-62 = tested on: UACC-62
# HOP-62 = tested on: HOP-62
# RXF 393 = tested on: RXF 393
# IGROV-1 = tested on: IGROV-1
# BT-549 = tested on: BT-549
# Hs-578T = tested on: Hs-578T
# OVCAR-8 = tested on: OVCAR-8
# SF-268 = tested on: SF-268
# SNB-19 = tested on: SNB-19
# HT-29 = tested on: HT-29
# SNB-75 = tested on: SNB-75
# OVCAR-4 = tested on: OVCAR-4
# SN12C = tested on: SN12C
# NCI/ADR-RES = tested on: NCI/ADR-RES
# T47D = tested on: T47D
# NCI-H226 = tested on: NCI-H226
# Malme-3M = tested on: Malme-3M
# OVCAR-3 = tested on: OVCAR-3
# MDA-N = tested on: MDA-N
# HOP-92 = tested on: HOP-92
# SK-MEL-5 = tested on: SK-MEL-5
# OVCAR-5 = tested on: OVCAR-5
# SK-MEL-28 = tested on: SK-MEL-28
# U-251 = tested on: U-251
# ACHN = tested on: ACHN
# A549 = tested on: A549
# SF-539 = tested on: SF-539
# K562 = tested on: K562
# HL-60 = tested on: HL-60
# CCRF-CEM = tested on: CCRF-CEM
structure (smiles),measurement,setting,value
NC(Cc1c[nH]c2cc([N+](=O)[O-])ccc12)C(=O)O (stereo not drawn),GI50,PC-3,> 100 µM (inactive)
same,GI50,SK-OV-3,> 100 µM (inactive)
same,GI50,TK-10,> 100 µM (inactive)
same,GI50,RPMI-8226,> 100 µM (inactive)
same,GI50,M14,> 100 µM (inactive)
same,GI50,MDA-MB-231,> 100 µM (inactive)
same,GI50,LOX IMVI,> 100 µM (inactive)
same,GI50,SR,> 100 µM (inactive)
same,GI50,DU-145,> 100 µM (inactive)
same,GI50,NCI-H23,> 100 µM (inactive)
same,GI50,MCF7,> 100 µM (inactive)
same,GI50,COLO 205,> 100 µM (inactive)
same,GI50,CAKI-1,> 100 µM (inactive)
same,GI50,HCT-116,> 100 µM (inactive)
same,GI50,HCT-15,> 100 µM
same,GI50,EKVX,> 100 µM (inactive)
same,GI50,SK-MEL-2,> 100 µM (inactive)
same,GI50,KM12,> 100 µM (inactive)
same,GI50,UO-31,> 100 µM (inactive)
same,GI50,SF-295,> 100 µM (inactive)
same,GI50,786-0,> 100 µM (inactive)
same,GI50,SW-620,> 100 µM (inactive)
same,GI50,NCI-H522,> 100 µM (inactive)
same,GI50,NCI-H460,> 100 µM (inactive)
same,GI50,MOLT-4,> 100 µM (inactive)
same,GI50,UACC-257,> 100 µM (inactive)
same,GI50,MDA-MB-435,> 100 µM (inactive)
same,GI50,A498,> 100 µM (inactive)
same,GI50,UACC-62,> 100 µM (inactive)
same,GI50,HOP-62,> 100 µM (inactive)
same,GI50,RXF 393,> 100 µM (inactive)
same,GI50,IGROV-1,57.4 µM (inactive)
same,GI50,BT-549,> 100 µM (inactive)
same,GI50,Hs-578T,> 100 µM (inactive)
same,GI50,OVCAR-8,> 100 µM (inactive)
same,GI50,SF-268,> 100 µM (inactive)
same,GI50,SNB-19,> 100 µM (inactive)
same,GI50,HT-29,> 100 µM (inactive)
same,GI50,SNB-75,> 100 µM (inactive)
same,GI50,OVCAR-4,> 100 µM (inactive)
same,GI50,SN12C,> 100 µM (inactive)
same,GI50,NCI/ADR-RES,> 100 µM (inactive)
same,GI50,T47D,> 100 µM (inactive)
same,GI50,NCI-H226,33.7 µM (inactive)
same,GI50,Malme-3M,> 100 µM (inactive)
same,GI50,OVCAR-3,> 100 µM (inactive)
same,GI50,MDA-N,> 100 µM (inactive)
same,GI50,HOP-92,67.6 µM (inactive)
same,GI50,SK-MEL-5,> 100 µM (inactive)
same,GI50,OVCAR-5,> 100 µM (inactive)
same,GI50,SK-MEL-28,> 100 µM (inactive)
same,GI50,U-251,> 100 µM (inactive)
same,GI50,ACHN,> 100 µM (inactive)
same,GI50,A549,> 100 µM (inactive)
same,GI50,SF-539,> 100 µM (inactive)
same,GI50,K562,> 100 µM (inactive)
C[C@]12CCC3=NCCN3C1=CC[C@@H]1[C@@H]2CC[C@@]2(C)[C@H]1CC[C@]2(C)O,GI50,PC-3,62.5 µM (inactive)
same,GI50,SK-OV-3,> 100 µM (inactive)
same,GI50,TK-10,41.1 µM (inactive)
same,GI50,RPMI-8226,15 µM (inactive)
same,GI50,M14,89.1 µM (inactive)
same,GI50,MDA-MB-231,> 100 µM (inactive)
same,GI50,LOX IMVI,32.2 µM (inactive)
same,GI50,SR,38.8 µM (inactive)
same,GI50,DU-145,> 100 µM (inactive)
same,GI50,NCI-H23,59.6 µM (inactive)
same,GI50,MCF7,61.9 µM (inactive)
same,GI50,COLO 205,25.8 µM (inactive)
same,GI50,CAKI-1,> 100 µM (inactive)
same,GI50,HCT-116,31 µM (inactive)
same,GI50,HCT-15,53.2 µM
same,GI50,EKVX,96.4 µM (inactive)
same,GI50,SK-MEL-2,50 µM (inactive)
same,GI50,KM12,82.6 µM (inactive)
same,GI50,UO-31,68.1 µM (inactive)
same,GI50,SF-295,20.7 µM (inactive)
same,GI50,786-0,14.6 µM (inactive)
same,GI50,SW-620,85.1 µM (inactive)
same,GI50,NCI-H522,58.1 µM (inactive)
same,GI50,NCI-H460,38.3 µM (inactive)
same,GI50,MOLT-4,35.3 µM (inactive)
same,GI50,UACC-257,24.4 µM (inactive)
same,GI50,MDA-MB-435,84.9 µM (inactive)
same,GI50,A498,26.9 µM (inactive)
same,GI50,UACC-62,29.3 µM (inactive)
same,GI50,HOP-62,84.9 µM (inactive)
same,GI50,RXF 393,23 µM (inactive)
same,GI50,IGROV-1,39.1 µM (inactive)
same,GI50,BT-549,44 µM (inactive)
same,GI50,Hs-578T,30.5 µM (inactive)
same,GI50,OVCAR-8,45.9 µM (inactive)
same,GI50,SF-268,76.7 µM (inactive)
same,GI50,SNB-19,> 100 µM (inactive)
same,GI50,HT-29,16.1 µM (inactive)
same,GI50,SNB-75,40.7 µM (inactive)
same,GI50,OVCAR-4,> 100 µM (inactive)
same,GI50,SN12C,> 100 µM (inactive)
same,GI50,NCI/ADR-RES,> 100 µM (inactive)
same,GI50,T47D,87.1 µM (inactive)
same,GI50,NCI-H226,39.5 µM (inactive)
same,GI50,Malme-3M,24.5 µM (inactive)
same,GI50,OVCAR-3,> 100 µM (inactive)
same,GI50,MDA-N,61.9 µM (inactive)
same,GI50,HOP-92,37.2 µM (inactive)
same,GI50,SK-MEL-5,17.6 µM (inactive)
same,GI50,OVCAR-5,> 100 µM (inactive)
same,GI50,SK-MEL-28,28.8 µM (inactive)
same,GI50,U-251,87.3 µM (inactive)
same,GI50,ACHN,> 100 µM (inactive)
same,GI50,A549,> 100 µM (inactive)
same,GI50,SF-539,22.2 µM (inactive)
same,GI50,K562,34.7 µM (inactive)
C1=C(CC2=C[P+](c3ccccc3)(c3ccccc3)C=C(c3ccccc3)O2)OC(c2ccccc2)=C[P+]1(c1ccccc1)c1ccccc1,GI50,PC-3,0.337 µM (active)
same,GI50,SK-OV-3,0.367 µM (active)
same,GI50,TK-10,0.475 µM (active)
same,GI50,RPMI-8226,0.18 µM (active)
same,GI50,M14,0.573 µM (active)
same,GI50,MDA-MB-231,0.313 µM (active)
same,GI50,LOX IMVI,0.431 µM (active)
same,GI50,SR,0.26 µM (active)
same,GI50,DU-145,0.482 µM (active)
same,GI50,NCI-H23,0.448 µM (active)
same,GI50,MCF7,0.392 µM (active)
same,GI50,COLO 205,0.162 µM (active)
same,GI50,CAKI-1,2.21 µM (inactive)
same,GI50,HCT-116,0.332 µM (active)
same,GI50,HCT-15,1.63 µM
same,GI50,EKVX,0.44 µM (active)
same,GI50,KM12,0.325 µM (active)
same,GI50,UO-31,1.56 µM (inactive)
same,GI50,SF-295,0.566 µM (active)
same,GI50,786-0,0.684 µM (active)
same,GI50,SW-620,0.367 µM (active)
same,GI50,NCI-H460,0.577 µM (active)
same,GI50,MOLT-4,0.489 µM (active)
same,GI50,UACC-257,0.352 µM (active)
same,GI50,MDA-MB-435,0.304 µM (active)
same,GI50,A498,0.716 µM (active)
same,GI50,HOP-62,0.597 µM (active)
same,GI50,IGROV-1,0.184 µM (active)
same,GI50,BT-549,0.097 µM (active)
same,GI50,Hs-578T,0.241 µM (active)
same,GI50,OVCAR-8,0.239 µM (active)
same,GI50,SF-268,0.362 µM (active)
same,GI50,SNB-19,0.328 µM (active)
same,GI50,HT-29,0.358 µM (active)
same,GI50,HL-60,0.188 µM (active)
same,GI50,SNB-75,0.291 µM (active)
same,GI50,SN12C,0.339 µM (active)
same,GI50,NCI/ADR-RES,14.3 µM (inactive)
same,GI50,T47D,0.17 µM (active)
same,GI50,Malme-3M,0.248 µM (active)
same,GI50,OVCAR-3,0.32 µM (active)
same,GI50,MDA-N,0.337 µM (active)
same,GI50,HOP-92,0.166 µM (active)
same,GI50,SK-MEL-5,0.293 µM (active)
same,GI50,OVCAR-5,1.04 µM (active)
same,GI50,SK-MEL-28,0.724 µM (active)
same,GI50,U-251,0.269 µM (active)
same,GI50,CCRF-CEM,0.361 µM (active)
same,GI50,ACHN,0.644 µM (active)
same,GI50,A549,0.494 µM (active)
same,GI50,SF-539,0.362 µM (active)

# — ChEMBL document CHEMBL1201862, “PubChem BioAssay data set” (2004)
